Measurements from publication PMC9654820, “Immunosuppressive Sesquiterpene Pyridine Alkaloids from Tripterygium wilfordii Hook. f” (Molecules, 2022).
Entries after “also recorded” stand apart in the source; their conditions may differ.

Tests used:
Type in all cases: cell-based
[1] = Cell viability assay (CCK-8); settings: human; HEK293 cells, CCK-8, compound at 100 μM, 48 h incubation; read-out: Cell Viability (%) (N = 3)
Method: (§1) The viability of HEK293 cells was determined by a CCK-8 assay according to the established protocol. Briefly, 5 × 10^3 cells/well HEK293 cells were cultured in 96-well plates at 37 °C under an atmosphere of 5% CO2 for 24 h and then treated with the tested compounds. After 48 h of incubation, CCK-8 reagent (20 μL) was added into each well and continuously incubated for 2 h at 37 °C. Absorbance at a wavelength of 450 nm was measured by a microplate reader, which was further used to calculate the cell viability. All the experiments were performed in triplicate.

[2] = system: NF-κB pathway; assay: NF-κB inhibitory (immunosuppressive) activity, luciferase reporter assay in LPS-induced HEK293/NF-κB-Luc cells; settings: for inhibition at 100 µM / IC50: Homo sapiens; for inhibition at 100 µM: HEK293, 24 h, read-out: NF-κB Inhibitory Rates (%) (N = 3); for IC50: read-out: IC50 NF-κB inhibition
Method: The NF-κB inhibitory activities were measured using the HEK293/NF-κB-Luc cells, which were generated as described previously. Briefly, HEK293 cells were co-transfected with a luciferase reporter plasmid, which contained an NF-κB binding site and pcDNA3.1, using Lipofectamine 2000 at a concentration of 10:1. The HEK293/ NF-κB-Luc cells were plated in 48-well plates and cultured in DMEM supplemented with 10% fetal bovine serum (FBS) for 16 h. Then, the cells were treated with the tested compounds, followed by stimulation with 1 μg/mL of LPS for 24 h. The cells were rinsed twice with phosphate-buffered saline (PBS, pH 7.4) and lysed with passive lysis buffer. Then, the inhibitory effects on NF-κB were analyzed using the luciferase assay system according to the manufacturer’s instructions. All the experiments were performed in triplicate.

[3] = system: HEK293 cells; assay: Cell viability assay (CCK-8); settings: for influence on the cell viability: CCK-8, at a concentration of 100 μM
Method: as §1

[4] = HEK293/NF-κB-Luc cells induced by LPS (1 μg/mL, 24 h), compound at 100 μM
[5] = HEK293/NF-κB-Luc cells induced by LPS

What does the source list for `CC(=O)OCC12[C@H](OC(C)=O)[C@H](OC(C)=O)[C@@H]3[C@@H](O)[C@@]14O[C@@]3(C)COC(=O)c1cccnc1CCC(C)(O)C(=O)O[C@@H]([C@H](OC(=O)c1ccoc1)[C@@H]2OC(C)=O)[C@]4(C)O` (stereo partly drawn) [Compound 4, 2β-furanoyloxy-1β,7β,8β,11-tetraacetoxy-4α,5α-dihydroxy-3α,15-[2′-methyl-2′-hydroxy-4′-(3′′-carboxy-2′′ -pyridyl)butanoic acid] dicarbolactone dihydro-β-agarofuran]?
viability at 48 h, 100 µM [1]: 101 ± 3.58%; inhibition at 100 µM [2, 4]: 7.27 ± 2.28%

What does the source list for `CC(=O)OC[C@]12[C@H](OC(C)=O)[C@H](OC(C)=O)[C@@H]3[C@@H](OC(C)=O)[C@@]14O[C@@]3(C)COC(=O)c1cccnc1CCC(C)C(=O)O[C@@H]([C@H](OC(=O)c1ccccc1)[C@@H]2OC(C)=O)[C@]4(C)O` (stereo partly drawn) [Compound 16, wilforine]?
viability at 48 h, 100 µM [1]: 103 ± 2.21%; influence on the cell viability [3]: no influence on the cell viability; also recorded: no effects on the cell viability; inhibition at 100 µM [2, 4]: > 50%; IC50 [2, 5]: 15.7 µM

What does the source list for wilfortrine [Compound 14]?
Cell Viability (%) (N = 3) ([3]; HEK293 cells, CCK-8, compound at 100 μM, 48 h incubation): 93.76 ± 1.82%; NF-κB Inhibitory Rates (%) (N = 3) [2, 4]: 40.20 ± 3.92%

For `CC(=O)OCC12[C@H](OC(C)=O)C(=O)[C@@H]3[C@@H](OC(C)=O)[C@@]14O[C@@]3(C)COC(=O)c1cccnc1CCC(C)(OC(=O)c1ccccc1)C(=O)O[C@@H]([C@H](OC(C)=O)[C@@H]2OC(C)=O)[C@]4(C)O` (stereo partly drawn) [Compound 10, 1β,2β,5α,8β,11-pentaacetoxy-4α-droxy-7-oxo-3α,15-[2′-methyl-2′-(3-benzoyloxy)-4′-(3′′-carboxy-2′′-pyridyl)butanoic acid] dicarbolactone dihydro-β-agarofuran], which viability at 48 h, 100 µM [1] is on record?
The viability at 48 h, 100 µM was 102.8 ± 0.89%.

And the inhibition at 100 µM [2, 4]?
The inhibition at 100 µM was 21.7 ± 4.42%.

Which viability at 48 h, 100 µM [1] does the source give for `CC(=O)OCC12[C@H](OC(C)=O)[C@H](OC(C)=O)[C@@H]3[C@@H](OC(C)=O)[C@@]14O[C@@]3(C)COC(=O)c1cccnc1CCC(C)C(=O)O[C@@H]([C@H](O)[C@@H]2OC(C)=O)[C@]4(C)O` (stereo partly drawn) [Compound 12, wilforjine] here?
Its viability at 48 h, 100 µM is 93.5 ± 2.76%.

And the inhibition at 100 µM [2, 4]?
Its inhibition at 100 µM is 23 ± 3.43%.

Which results are given for `CC(=O)OCC12[C@H](OC(C)=O)C(=O)[C@@H]3[C@@H](OC(C)=O)[C@@]14O[C@@]3(C)COC(=O)c1cccnc1CCC(C)C(=O)O[C@@H]([C@H](OC(C)=O)[C@@H]2OC(C)=O)[C@]4(C)O` (stereo partly drawn) [Compound 13, evonimine]?
viability at 48 h, 100 µM [1]: 100 ± 6.4%; inhibition at 100 µM [2, 4]: 26.5 ± 5.99%

Which results are given for `CC(=O)OCC12C(OC(C)=O)C(=O)C3C(OC(C)=O)C14OC3(C)COC(=O)c1cccnc1CCC(C)(OC(=O)c1ccoc1)C(=O)OC(C(OC(C)=O)C2OC(C)=O)C4(C)O` (stereo not drawn) [Compound 9, 1β,2β,5α,8β,11-pentaacetoxy-4α-droxy-7-oxo-3α,15-[2′-methyl-2′-(3-furoyloxy)-4′-(3′′-carboxy-2′′-pyridyl)butanoic acid] dicarbolactone dihydro-β-agarofuran]?
viability at 48 h, 100 µM [1]: 99.5 ± 5.71%; inhibition at 100 µM [2, 4]: 37.4 ± 1.99%

With `Cc1ccc(NCCCc2ccccc2)c(N)c1` [JSH23, reference compound] as the compound, how does the “NF-κB Inhibitory Rates (%) (N = 3)” value ([2]; positive control, HEK293/NF-κB-Luc cells induced by LPS, concentration not given) read?
The value was 74.56 ± 1.83%.

What does the source list for `CC(=O)OC[C@]12[C@H](OC(C)=O)[C@H](OC(C)=O)[C@@H]3[C@@H](OC(C)=O)[C@@]14O[C@@]3(C)COC(=O)c1cccnc1CCC(C)(O)C(=O)O[C@@H]([C@H](O)[C@@H]2OC(C)=O)[C@@]4(C)O` (stereo partly drawn) [Compound 11, tripfordine A]?
viability at 48 h, 100 µM [1]: 102 ± 3.66%; influence on the cell viability [3]: no influence on the cell viability; also recorded: no effects on the cell viability; inhibition at 100 µM [2, 4]: > 50%; IC50 [2, 5]: 0.74 µM

With `CC(=O)OCC12[C@H](OC(C)=O)[C@H](OC(C)=O)[C@@H]3[C@@H](O)[C@@]14O[C@@]3(C)COC(=O)c1cccnc1CCC(C)(O)C(=O)O[C@@H]([C@H](OC(=O)c1ccccc1)[C@@H]2OC(C)=O)[C@]4(C)O` (stereo partly drawn) [Compound 5, 2β-benzoyloxy-1β,7β,8β,11-tetraacetoxy-4α,5α-dihydroxy-3α,15-[2′-methyl-2′-hydroxy-4′-(3′′-carboxy-2′′-pyridyl)butanoic acid] dicarbolactone dihydro-β-agarofuran] as the compound, how does the viability at 48 h, 100 µM [1] read?
The viability at 48 h, 100 µM was 93.8 ± 2.2%.

What about the “influence on the cell viability” value [3] of the same compound?
Its value is “no influence on the cell viability; also recorded: no effects on the cell viability”.

And the inhibition at 100 µM [2, 4]?
Its inhibition at 100 µM is > 50%.

What about the IC50 [2, 5] of the same compound?
Its IC50 is 8.75 µM.

What does the source list for `CC(=O)OCC12[C@H](OC(C)=O)[C@H](OC(C)=O)[C@@H]3[C@@H](OC(C)=O)[C@@]14O[C@@]3(C)COC(=O)c1cccnc1CCC(C)(OC(=O)c1ccccc1)C(=O)O[C@@H]([C@H](OC(C)=O)[C@@H]2OC(C)=O)[C@]4(C)O` (stereo partly drawn) [Compound 15, wilfornine A]?
viability at 48 h, 100 µM [1]: 110 ± 5.83%; inhibition at 100 µM [2, 4]: 8.73 ± 2.07%
